Results: US5750405A, “Method for the detection for protein” (priority 1996, dated 1998)

Assays:
[1] = biological target: human serum albumin (HSA) (Homo sapiens, UniProt P02768); test: DIDNTB reagent strip protein response, Example I, HSA; conditions: for protein response: Example I, 6 mM of substituted alkane; for % change in response, HSA 30 mg/dL: additive 6 mM, vs control formula lacking additive, negative = loss of protein response
Excerpt: (§1) The DIDNTB protein reagent was made from two saturations of Alhstrom 204 filter paper in which the first saturation was made with an aqueous ethanol mix containing tartaric acid as buffer and methyl red as background dye. The pH was adjusted to 2.1. The second saturation was with a toluene/tetrahydrofuran mix containing the DIDNTB indicator dye and Lutanol M40 (a polyvinylmethylether) as a color enhancer polymer.
(§2) The mix solutions were used to saturate the filter paper and the paper was dried at 105° C. for 7 minutes after each saturation. The resultant dry reagents were processed into reagent strips which were tested on a Clinitek-200+ reflectance spectrophotometer from Bayer Diagnostics after dipping into urine containing 0 or 30 mg/dL human serum albumin or 40 mg/dL of another urinary protein. The particulars of each dip solution are set out in Table 3.
Prior to the addition of HSA, the urine sample was filtered through an ultrafiltration membrane having a 10 KDa (kilodalton) molecular weight cut-off to remove naturally occurring proteins. The total protein in the urine sample was determined using an immunological HSA assay and the Coomassie Brilliant Blue (CBB) method described by Perini et al as cited above to screen over 175 clinical samples to provide specimens lacking albumin but containing other urine protein. […] These urines were pooled and diluted with negative urine to 40 mg/dL by the CBB method and less than 1.2 mg/dL by immunological HSA assay. The reagent response was measured on the […]-200+ instrument as the result of 1000×% Reflectance @ 610 nm/% reflectance @ 690 nm. The difference between negative and protein containing urines was taken as the protein response. The data generated by this experiment are set out in Table 1 in which the protein response of control formula lacking polymer or substituted alkane additive is compared to the formulas containing polymer or alkane to determine the % change in response. Negative numbers indicate greater loss of protein response.
The HSA response in the presence of these additives was compared to the response for other urinary proteins such as Tamm Horsefall glycoprotein, Bence-Jones protein, α-1-microglobin, hemoglobin and various low molecular weight protein fragments. The additives were used at a 0.1% (w/w) concentration to allow a measurable HSA response in all cases. The 0.1% concentration amounts to […] concentration of additive and is in excess of the 4.4 μM concentration of the proteins tested.

[2] = test system: Urinary proteins; test: DIDNTB reagent strip protein response, Example I, other urinary proteins; format: binding; conditions: additive 6 mM; vs control formula lacking additive; negative = loss of protein response
Excerpt: as §1, §2
Prior to the addition of HSA, the urine sample was filtered through an ultrafiltration membrane having a 10 KDa (kilodalton) molecular weight cut-off to remove naturally occurring proteins. The total protein in the urine sample was determined using an immunological HSA assay and the Coomassie Brilliant Blue (CBB) method described by Perini et al as cited above to screen over 175 clinical samples to provide specimens lacking albumin but containing other urine protein. […] These urines were pooled and diluted with negative urine to 40 mg/dL by the CBB method and less than 1.2 mg/dL by immunological HSA assay. The reagent response was measured on the […]-200+ instrument as the result of 1000×% Reflectance @ 610 nm/% reflectance @ 690 nm. The difference between negative and protein containing urines was taken as the protein response. The data generated by this experiment are set out in Table 1 in which the protein response of control formula lacking polymer or substituted alkane additive is compared to the formulas containing polymer or alkane to determine the % change in response. Negative numbers indicate greater loss of protein response. […]

[3] = test system: albumin; conditions: Coomassie Brilliant Blue; cited from earlier work
[4] = test system: albumin; conditions: cited from earlier work

Chain of human serum albumin (HSA) (P02768 25-609): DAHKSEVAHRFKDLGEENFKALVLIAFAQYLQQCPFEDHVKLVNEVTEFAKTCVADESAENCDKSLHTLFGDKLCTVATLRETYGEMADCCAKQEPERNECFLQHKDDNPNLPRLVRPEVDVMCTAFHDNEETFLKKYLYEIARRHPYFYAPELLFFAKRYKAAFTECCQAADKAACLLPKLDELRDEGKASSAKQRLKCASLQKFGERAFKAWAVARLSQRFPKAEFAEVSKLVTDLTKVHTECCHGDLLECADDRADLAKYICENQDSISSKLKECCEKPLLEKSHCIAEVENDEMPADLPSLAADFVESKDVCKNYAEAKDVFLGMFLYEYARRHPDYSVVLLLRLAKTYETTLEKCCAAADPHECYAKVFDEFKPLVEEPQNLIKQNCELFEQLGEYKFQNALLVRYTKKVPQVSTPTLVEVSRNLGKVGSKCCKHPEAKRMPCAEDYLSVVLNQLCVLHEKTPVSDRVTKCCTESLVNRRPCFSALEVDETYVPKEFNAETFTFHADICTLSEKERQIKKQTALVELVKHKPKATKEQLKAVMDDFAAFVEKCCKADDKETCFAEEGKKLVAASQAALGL

Compound	protein response [1]	% change in response, HSA 30 mg/dL [1]	% change in response, Urinary proteins 40 mg/dL [2]	specificity of the test for albumin [3]	effect on the binding of phenol red to albumin [4]
CCCCCCCCCC(=O)O [Decanoic acid]	did not affect the protein response	7%	2%		
CCCCCCCCCCCCOS(=O)(=O)[O-].[Na+] [sodium dodecyl sulfate]				decreased the specificity	
CCCCCCCCCCCCCCCC(=O)O [Palmitate, palmitic acid]					modest inhibitory effects
CCCCCCCCCCCCCCCC(=O)O [Hexadecanoic acid]			1%		
CCCCCCCCCCO [Decanol]	did not affect the protein response	3%	8%		
